Read-outs that look alike come from different tables or passages of the source.
Assays:
[1] = system: mouse renal cancer cell lines RuCa; test: WST-1 growth inhibition of mouse renal cancer cell line RuCa in vitro; format: cell-based; conditions: for Inhibition rate (%): Comparative Example 1, method of Experimental Example 1; for Observation of cell morphology / effect on cell growth / inhibition at 30 µg/mL / OD value (average): 48 h; for Observation of cell morphology / effect on cell growth: inverted microscope, compared with negative control; for inhibition at 30 µg/mL: Mus musculus, read-out: Inhibition rate (%); for inhibition at 30 µg/mL / OD value (average): final concentration 30 μg/ml; for OD value (average): WST-1, absorption at 440 nm
Method: (§1) Human kidney cancer cell line A498 and mouse kidney cancer cell line RuCa; the cells were passaged prior to use, and the cells that were in a good growth state and in log phase growth were selected for use.
(§2) Then, the cells were suspended in complete medium, and the cell concentration was adjusted to 6×10^4/ml. The cells were seeded in 96 well plates at 50 μl/well […], and three multiple wells were set up for each drug concentration.
(§3) On the next day after inoculation, once cells were adherent to the wall, the drugs were added according to the following groups and then incubated for 48 h.
The storage solution of each drug was prepared into 60 μg/ml with complete medium for use; the complete medium of each test drug mentioned above (50 μl) was placed in the 96-well plate inoculated cells, and the final concentration of each group was 30 μg/ml, three wells for each concentration.
Then, 10 μl WST-1 solution was added into the wells of above drug groups, negative control group, and blank control group. After the cells were incubated in 37° C. incubator for 4 h, the absorption values of different drug groups, negative control group and blank control group were measured at 440 nm by μ-Quant microplate analyzer.

[2] = system: human renal cancer cell lines A498; test: WST-1 growth inhibition of human renal cancer cell line A498 in vitro; format: cell-based; conditions: for Observation of cell morphology / effect on cell growth: inverted microscope, compared with negative control; for inhibition at 15 µg/mL: final concentration 15 μg/ml; for inhibition at 60 µg/mL: final concentration 60 μg/ml; for OD value (average): WST-1, absorption at 440 nm
Method: as §1, §2, §3
The storage solution of each drug was prepared into 60 μg/ml with complete medium for use; the complete medium of each test drug mentioned above (50 μl) was placed in the 96-well plate inoculated cells, […], three wells for each concentration.
Then, 10 μl WST-1 solution was added into the wells of above drug groups, negative control group, and blank control group. […]
In order to objectively evaluate the synergistic effect of the combination of the three compounds, according to the standard proposed in the non patent literature Chou T C. Theoretical basis, experimental design, and computerized simulation of synergism and antagonism in drug combination studies. [J].
A, B and C denote the doses of three components in the pharmaceutical composition; Ae, Be, and Ce denote the dose of a single component required to achieve the tumor inhibition efficiency of the pharmaceutical composition when using a single compound alone. […] The smaller the CI value is, the stronger the synergistic effect is.

[3] = system: transplanted tumor RuCa in mice; test: Inhibitory effect on transplanted tumor RuCa in mice; format: in vivo, mouse; conditions: for Tumor inhibition rate (%) / Body weight 15 d after administration / Tumor weight: 30 mg/kg ip once a day, 15 times; for Body weight 15 d after administration / Tumor weight / Body weight Before administration: x ± SD, n = 10; for Body weight Before administration: baseline
Excerpt: Mouse renal cancer cell lines RuCa were established by subcutaneously inoculating in mouse axillary. The number of cells inoculated was 1×10^7, and after inoculation formed transplanted tumor, the cells were passaged in mice for 3 generations for use.
• 80 BABL/C-nu mice, half male and half female, weighing 18-22 g; 2 Experimental Method 2.1 Route of Administration
intraperitoneal injection (ip)
The tumor tissue in vigorous growth stage was cut into about 1.5 mm^3 and homogenized under aseptic conditions to prepare 1×10^7/ml cell suspension. 80 mice of the above specifications were inoculated subcutaneously in the right armpit with 0.1 ml cell suspension. On the second day after inoculation, the mice were weighed and randomly divided into 8 groups, with 10 mice in each group, that were test drug 1 group, test drug 2 group, test drug 3 group, test drug 4 group, test drug 5 group, test drug 6 group, test drug 7 group, and negative control group. The test drug group was administrated by intraperitoneal injection (ip), 30 mg/kg/time, once a day, and the administration was successively performed 15 times. The negative group was intraperitoneally injected with the same dose of normal saline, once a day, and the mice were weighed before administration.
At the end of administration, the experiment was stopped, and the mice were killed by cervical dislocation and weighed. The tumor was stripped, and the tumor inhibition rate was calculated.

[4] = Homo sapiens, A498, read-out: Inhibition rate (%)
[5] = Homo sapiens, A498, final concentration 30 μg/ml (Table 3), read-out: Inhibition rate (%)
[6] = Homo sapiens, A498, final concentration 30 μg/ml, 48 h, read-out: Inhibition rate (%)
[7] = final concentration 30 μg/ml, 48 h

Row | Compound | Inhibition rate (%) [1] | inhibition at 0.1 µg/mL ([2]; Homo sapiens, A498, final concentration 0.1 μg/ml, read-out: Inhibition rate (%)) | inhibition at 0.5 µg/mL ([2]; Homo sapiens, A498, final concentration 0.5 μg/ml, read-out: Inhibition rate (%)) | inhibition at 1 µg/mL ([2]; Homo sapiens, A498, final concentration 1 μg/ml, read-out: Inhibition rate (%)) | Tumor inhibition rate (%) [3] | Body weight 15 d after administration [3] | Tumor weight [3] | Body weight Before administration [3] | Observation of cell morphology / effect on cell growth [1] | inhibition at 30 µg/mL [1] | OD value (average) [1] | Observation of cell morphology / effect on cell growth ([2]; 48 h) | inhibition at 15 µg/mL [2, 4] | inhibition at 30 µg/mL [2, 5] | inhibition at 30 µg/mL [2, 6] | inhibition at 60 µg/mL [2, 4] | OD value (average) [2, 7]
1 | Feruloylquinic acid [reference compound] | 10.42% | – | – | – | – | – | – | – | – | – | – | – | – | – | – | – | –
2 | Cinnamoylquinic acid [reference compound] | 13.94% | – | – | – | – | – | – | – | – | – | – | – | – | – | – | – | –
3 | CNC(=O)c1cc(Oc2ccc(NC(=O)Nc3ccc(Cl)c(C(F)(F)F)c3)cc2)ccn1 [Sorafenib, sorafenib, reference compound] | – | 5.36% | 13.8% | 29.4% | – | – | – | – | – | – | – | – | – | – | – | – | –
4 | O=C(/C=C/c1ccc(O)cc1)O[C@@H]1C[C@](O)(C(=O)O)C[C@@H](O)[C@H]1O [Coumaroylquinic acid, coumaroylquinic acid] | – | – | – | – | 7.41% | 25.2 ± 1.42 | 2.5 ± 0.19 g | 19.4 ± 1.17 | almost had no effect on cell growth | 5.85% | 1.909 | almost had no effect on cell growth | 1.92% | 4.85% | 3.13% | 7.13% | 2.280
5 | O=C(/C=C/c1ccc(O)c(O)c1)O[C@@H]1C[C@](O)(C(=O)O)C[C@@H](O)[C@H]1O [Chlorogenic acid, chlorogenic acid] | 37.29% | – | – | – | 33.33% | 27.3 ± 1.19 | 1.8 ± 0.14 g | 19.6 ± 0.98 | certain effect on cell growth | 38.5% | 1.248 | certain effect on cell growth | 15.7% | 37.2% | 36.5% | 61.3% | 1.494
